The target in experiment [1] is benzodiazepine receptors. The experiment is described as follows: Radioligand binding, displacement of [3H]-Flunitrazepam. Conditions: rat whole brain membranes, 0.5nM [3H] ligand; read-out: [^3H]-Flu Ki. The method, then:
(§1) An interaction with benzodiazepine receptors in the central nervous system may be indicative of anxiolytic activity since inhibition of benzodiazepine binding correlates with the clinical efficacy of benzodiazepines. [^3H]-Flunitrazepam and [^3H]-βCCE selectively label benzodiazepine receptors and displacement of this specific binding in vitro by novel compounds in well-washed, frozen rat whole brain membranes is measured essentially as described by Martin and Candy (1978). At the fixed concentration of 0.5nM used, specific binding of both [^3H] ligands represents 80-90% of the total radioactivity bound. Non-specific binding is defined by 10µM clonazepam for each ligand. IC50 values are calculated from log [dose] against % inhibition curves; Ki values are determined using the Cheng-Prusoff equation.
(In general: In a radioligand displacement assay an active substance lowers the binding of a labelled ligand.)

In experiment [2] the target is benzodiazepine receptors. The experiment can be described thus: Radioligand binding, displacement of [3H]-βCCE. Conditions: rat whole brain membranes, 0.5nM [3H] ligand. How it is done:
as §1

Each structure is given as a SMILES string. Structures can show the parent of a compound that is named as a salt.

As to `CCOC(=O)c1cnc2ccsc2c1NNc1ccccc1` [Example E1, 7-(2-Phenylhydrazino)-thieno[3,2-b]pyridine-6-carboxylic acid, ethyl ester, monohydrochloride], the Ki (usually the equilibrium dissociation constant of an inhibitor or competing ligand from its target) at benzodiazepine receptors [1] stood at 7000 nM; on benzodiazepine receptors [2], 5000 nM. The corresponding values for `CCOC(=O)c1cnc2ccsc2c1NNc1ccc([N+](=O)[O-])cc1` [Example E3, 7-(2-(4-Nitrophenyl)hydrazino)-thieno[3,2-b]pyridine-6-carboxylic acid, ethyl ester, monohydrochloride] are 1000 nM and 1500 nM. The corresponding values for `CCOC(=O)c1cnc2ccsc2c1NNc1ccc(C)cc1` [Example E5, 7-(2-(4-Methylphenyl)hyarazino)-thieno[3,2-b]pyridine-6-carboxylic acid, ethyl ester, tnonohydrochloride] are 6500 nM and over 100000 nM. The corresponding values for `CCOC(=O)c1cnc2ccsc2c1NNc1ccccn1` [Example E6, 7-(2-(2-Pyridyl)hydrazino)-thieno[3,2-b]pyridihe-6-carboxylic acid, ethyl ester, monohydrochloride] are 350 nM and 360 nM. `CCOC(=O)c1cnc2ccsc2c1NNc1ccc(OC)cc1` [Example E8, 7-{2-(4-Methoxyphenyl)hydrazino)-thieno[3,2-b]pyridine-6-carboxylic acid, ethyl ester, monbhydrochloride]: the results for the Ki at benzodiazepine receptors [1] and at benzodiazepine receptors [2] were 2400 nM and 3300 nM, respectively. Regarding `CCOC(=O)c1c(C)nc2ccsc2c1NNc1ccccc1` [Example E10, 5-Methyl-7-(2-phenylhydrazino)-thieno[3,2-b]pyridine-6-carboxylic acid, ethyl ester, monohydrochloride], the inhibition constant Ki on benzodiazepine receptors [1] came to 39000 nM; at benzodiazepine receptors [2], 23000 nM.

As for `CCOC(=O)c1c(C)nc2ccsc2c1NNc1ccc(Cl)cc1` [Example E11, 7-(2-(4-Chlorophenyl)hydrazino)-5-methyl-thieno[3,2-b] pyridine-6-carboxylic acid, ethyl estet, monohydrochloride], the Ki at benzodiazepine receptors [1] stood at 200 nM; on benzodiazepine receptors [2], 290 nM. As to `Cc1[nH]c2ccsc2c2nn(-c3ccc(Cl)cc3)c(=O)c1-2` [Example E20, 2-(4-Chlorophenyl)-2,5-dihydro-4-methyl-3H-pyrazolo [3,4-d]thieno[3,2-b]pyridin-3-one], the inhibitory constant (Ki) at benzodiazepine receptors [1] was found to be 1000 nM; on benzodiazepine receptors [2], 2200 nM.

For the compound `O=c1c2c[nH]c3ccsc3c-2nn1-c1ccc(Cl)cc1` [Example E21, 2-(4-Chlorophenyl)-2,5-dihydro-3H-pyrazolo[3,4-d]thieno [3,2-b]pyridin-3-one], the results for the Ki at benzodiazepine receptors [1] and at benzodiazepine receptors [2] were 0.46 nM and 0.38 nM, respectively.

For the compound `O=c1c2c[nH]c3ccsc3c-2nn1-c1cc(Cl)cc(Cl)c1` [Example E22, 2-(3,5-Dichlorophenyl)-2,5-dihy dro-3H-pyrazolo[3,9-d] thieno[3,2-b]pyrirlin-3-one], the values for the inhibitory constant (Ki) on benzodiazepine receptors [1] and on benzodiazepine receptors [2] were 180 nM and 170 nM, respectively.

Consider `Cc1ccc(-n2nc3c4sccc4[nH]cc-3c2=O)cc1` [Example E23, 2,5-Dihydro-2-(4-methylphenyl)-3H-pyrazolo[3,4-d]thieno [3,2-b]pyridin-3-one], for which the Ki at benzodiazepine receptors [1] was determined as 0.82 nM; on benzodiazepine receptors [2] it was 0.31 nM. As to `COc1ccc(-n2nc3c4sccc4[nH]cc-3c2=O)cc1` [Example E24, 2,5-Dihydro-2-(4-methoxyphenl)-3H-pyrazolo[3,4-d]thieno [3,2-b]pyridin-3-one], on benzodiazepine receptors [1], the Ki was 0.23 nM. In the case of `Cc1[nH]c2ccsc2c2nn(-c3ccccc3)c(=O)c1-2` [Example E25, 2,5-Dihydro-4-methl-2-phenyl-3H-pyrazolo[3,4-d]thieno [3,2-b]pyridin-3-one], the figures for the inhibitory constant (Ki) at benzodiazepine receptors [1] and at benzodiazepine receptors [2] were 99 nM and 107 nM, respectively. Turning to `CCc1cc2c3nn(-c4ccc(Cl)cc4)c(=O)c-3c[nH]c2s1` [Example E28, 2-(4-Chlorophenyl)-2,5-dihydro-7-ethyl-3H-pyrazolo[3,4-d] thieno[2,3-b]pyridin-3-one], the inhibition constant (Ki) at benzodiazepine receptors [1] was 1.8 nM. The same measure, in the same setting: for `CCc1cc2c3nn(-c4ccc(Cl)cc4)c(=O)c-3c(C)[nH]c2s1` [Example E29, 2-(4-Chlorophenyl)-2,5-dihydro-7-ethyl-4-methyl-3H-pyrazolo[3,4-d]thieno[2,3-b]pyridin-3-one] the value was 568 nM; for `O=c1c2c[nH]c3ccsc3c-2nn1-c1ccccn1` [Example E30], 0.7 nM.

`O=c1c2c[nH]c3cscc3c-2nn1-c1ccc(Cl)cc1` [Example E31, 2-(4-Chlorophenyl)-2,5-dihydro-3H-pyrazolo[3,4-d]thieno [3,4-b]pyridin-3-one]: the Ki at benzodiazepine receptors [1] came out at 0.32 nM.

Values taken from patent EP0126970A2, “Anxiolytic and anti-depressant thienopyridine derivatives” (BEECHAM GROUP PLC, priority 1983, dated 1984).
